Experimental data from US8395037B2, “Pharmaceutical compositions for treating/preventing motor organ diseases” (Mitsubishi Corporation, priority 2005, dated 2013).

How the values were obtained:
MMP-1 [1] = assay: MMP-1 concentration in synovial fluid of osteoarthritis model knee joints (ELISA); assay type: in vivo, rabbit; details: various concentrations, sequential measurement, versus control knees
Description: (§1) Sequential biochemical examinations of blood and synovial fluid were also performed (pre-administration and fourth- and eighth-week post-administration of water-solubilized fullerene). The observed biochemical examination items were (A) hepatic function (GOT and GPT), renal function (urea nitrogen and creatinine), and electrolytes (Na, K, and Cl), (B) extracellular matrix-degrading enzyme production ability (MMP-1, 3, and 13), and (C) cartilage matrix-synthesizing ability (proteoglycan). The items of (A) were measured by commercially available testing equipments and items of (B) and (C) were measured by ELISA method.

proteoglycan = assay: Cartilage matrix (proteoglycan) production in cultured chondrocytes (ELISA); assay type: cell-based, human; details: for Cartilage matrix (proteoglycan)-synthesizing ability: decreased by IL-1β or H2O2, 50 and 100 μM, 24 h
Description: Chondrocytes isolated from human articular cartilage tissues were used for cultured cells. After obtaining informed consent, cartilage tissues were collected from surgically-removed tissues from eight osteoarthritis patients. The collected tissues were sliced and then treated in a liquid low-glucose Dulbecco's modified Eagle's medium (DMEM, manufactured by Gibco Co.) containing 1.5 mg/ml collagenase B at 37° C. overnight, to isolate chondrocytes for culture. The cells were normally cultured in a culture flask (culture area: 25 cm^2), and in a polystyrene culture dish (diameter: 6 cm) for use in the experiments. The cell culture was performed using a DMEM medium added with inactivated fetal bovine serum (FBS, manufactured by TRACE Co.) at 10% volume of the medium, and also 2 mM L-glutamine, 25 mM HEPES, and penicillin and streptomycin at 100 units/ml, in either a CO2 incubator (normoxic condition) which was set at 5% CO2+95% air, or a low oxygen chamber (hypoxic condition) which was set at 1% O2+5% CO2+94% N2, at 37° C. under saturated humidity.
Influence of hydroxylated 60 fullerene on cartilage matrix (proteoglycan or type II collagen) production ability decreased by cartilage catabolism inducers was analyzed using ELISA.
Chondrocytes that had been isolated and cultured by the above method (1) were subjected to two secondary cultures. Then, these cells in a subconfluent state were disseminated into a 24 well-culture plate at 1×10^5 cells/well. After incubation for 12 hours, the wells were washed with PBS and the medium was replaced with a fresh 10% FBS-containing DMEM. […]
The production quantities (concentrations) of the cartilage matrix (proteoglycan and type II collagen) in the culture supernatant were determined using ELISA kits (a kit for proteoglycan, manufactured by BioSource; and a kit for type II collagen, manufactured by Chondrex, Inc.), which is the standard technique currently known in the art.

cultured chondrocytes = assay: Chondrocyte-proliferation ability under cartilage degenerating factors; assay type: cell-based; details: cultured chondrocytes treated with IL-1β and H2O2
MMP-1 [2] = assay: MMP-1 production in cultured chondrocytes treated with cartilage degenerating factor (ELISA); assay type: cell-based, human; details: for Production of MMP-1: IL-1β or H2O2 treated chondrocytes, 50 or 100 μM, 24 h
Description: Chondrocytes isolated from human articular cartilage tissues were used for cultured cells. After obtaining informed consent, cartilage tissues were collected from surgically-removed tissues from eight osteoarthritis patients. The collected tissues were sliced and then treated in a liquid low-glucose Dulbecco's modified Eagle's medium (DMEM, manufactured by Gibco Co.) containing 1.5 mg/ml collagenase B at 37° C. overnight, to isolate chondrocytes for culture. The cells were normally cultured in a culture flask (culture area: 25 cm^2), and in a polystyrene culture dish (diameter: 6 cm) for use in the experiments. […]
Influence of hydroxylated C60 fullerene on cartilage matrix-degrading enzyme production which is enhanced by cartilage catabolism inducers was analyzed using the enzyme-linked immunoassay (ELISA) method.
Chondrocytes that had been isolated and cultured by the above method (1) were subjected to two passage cultures. […] After a 24 hour incubation, the culture supernatant was collected, and the concentrations of cartilage matrix-degrading enzymes, matrix metalloprotease (MMP)-1, 3, and 13, were measured.
The concentrations of MMP-1, MMP-3, and MMP-13 in the culture supernatant were determined using ELISA kits (kits for MMP-1 and MMP-3, manufactured by R&D Co.; and a kit for MMP-13, manufactured by Amersham), which is the standard technique currently known in the art. […] 100 μl of 1.5 N H3PO4 was added to each well to stop the color reaction, and the absorbance at 450 nm was measured using a microtiter plate reader. According to the instructions provided by the manufacturer, the measured concentrations were calibrated using a lyophilized control reagent.

MMP-13 = MMP-13 concentration in synovial fluid of osteoarthritis model knee joints (ELISA); assay type: in vivo, rabbit; details: various concentrations, sequential measurement, versus control knees
Description: as §1

Substance: hydroxylated C60 fullerene
- MMP-1 concentration in synovial fluid (MMP-1 [1]): MMP-1 production inhibitory effect was observed
- Cartilage matrix (proteoglycan)-synthesizing ability (proteoglycan): restored cartilage matrix synthesis
- Cartilage matrix (proteoglycan)-synthesizing ability (proteoglycan; listed as hydroxylated 60 fullerene): able to restore the decreased synthesizing ability
- Proteoglycan synthesizing ability (proteoglycan; fullerene alone, versus control groups): increased as compared to that of the control groups
- Decrease of chondrocyte-proliferation ability (cultured chondrocytes): inhibited decrease of chondrocyte-proliferation ability
- Production of MMP-1 (MMP-1 [2]): inhibited in all cases
- Production of MMP-1 (MMP-1 [2]; listed as fullerene): decreased the amount of MMP-1 produced
- Inhibitory effect on production of MMP-1 (MMP-1 [2]; hypoxic condition): also observed
- MMP-13 concentration in synovial fluid (MMP-13): MMP-13 production inhibitory effect was observed
